SMILES strings stand for the structures.

Experiment [1] addresses T1, bovine α1-AGP (α1-acid glycoprotein) (Bos taurus, UniProt Q3SZR3).
T1 construct: gene ORM1
T1 sequence (Q3SZR3 19-202): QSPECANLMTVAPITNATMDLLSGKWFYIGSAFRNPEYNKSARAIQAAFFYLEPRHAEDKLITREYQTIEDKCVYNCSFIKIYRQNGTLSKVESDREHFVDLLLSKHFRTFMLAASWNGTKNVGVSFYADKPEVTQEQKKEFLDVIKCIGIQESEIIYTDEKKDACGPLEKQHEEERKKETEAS
Nature of the experiment: competitive displacement of [EuL^[…]], Eu emission. The following applies: pH 7.40, 298 K; competitive with [EuL^1]. Details: unit not given here. The experiment is classed as binding.

Experiment [2] has as its target T2, human α1-AGP (α1-acid glycoprotein).
T2 construct: gene ORM1
To be noted: pH 7.40, 298 K; competitive with [EuL^1].

As to `CCCCN1CCCCC1C(=O)Nc1c(C)cccc1C` (centres unmarked) [bupivacaine], the Bupivacaine in experiment [1] turned out to be 6.4; in experiment [2], 5.6.

For the origin of these results see publication PMC5915836, “Chiral probes for α1-AGP reporting by species-specific induced circularly polarised luminescence” (Chemical Science, 2018).
